Here are results for six compounds from patent US20050239358A1, “Antimicrobial melamine resin and products made therefrom” (MICROBAN PRODUCTS COMPANY, priority 2002, published 2005).

For one data set, the system named is bacteria and fungi. In words: antimicrobial efficacy of agents in melamine formaldehyde resin. The settings on record: agent for melamine resin; stated in words, no test described.
On to `O=c1[nH]sc2ccccc12` [1,2-benzisothiazolin-3-one], for which the “efficacy as antimicrobial agent” value is reported as “efficacious”.
The same measure, in the same setting: the entry for `CCCCCCCCn1sc(Cl)c(Cl)c1=O` [4,5-dichloro-2-N-octyl-3(2H)-isothiazolone] is “efficacious”; for `CCCCn1sc2ccccc2c1=O` [N-butyl-1,2-benzisothiazolin-3-one] it is “efficacious”; for `Oc1cc(Cl)ccc1Oc1ccc(Cl)cc1Cl` [Triclosan, 2,4,4′-trichloro-2′-hydroxydiphenyl ether] it is “particularly efficacious”.
In the case of `Cn1sc(Cl)cc1=O` [chloro-2-methyl-3(2H)-isothiazolone], the “efficacy as antimicrobial agent” value is reported as “efficacious”.
Same read-out and setting: the entry for `Cn1sccc1=O` [methyl-3(2H)-isothiazolone] is “efficacious”.

System in another data set: not given
Assay: not given
The settings on record: at 20° C.; cited from earlier work.
Regarding `Oc1cc(Cl)ccc1Oc1ccc(Cl)cc1Cl` [Triclosan, 2,4,4′-trichloro-2′-hydroxydiphenyl ether], the vapor pressure is given as 4×10^−4 mm.
